In US9266883B2, “Ring-fused bicyclic pyridyl derivatives as FGFR4 inhibitors” (Novartis AG, priority 2013, dated 2016):

Tests used:
[1] = target: FGFR3 (411-806) (Homo sapiens (Human), UniProt P22607); test: In vitro biochemical assay for FGFR3
[2] = target: FGFR2 (406-821) (Homo sapiens (Human), UniProt P21802); test: In vitro biochemical assay for FGFR2
[3] = target: FGFR1 (407-822) (Homo sapiens (Human), UniProt P11362); test: In vitro biochemical assay for FGFR1
[4] = tested on: HuH-7 hepatocellular carcinoma cells; test: CellTiter Glo (CTG) Assay; conditions: Homo sapiens, Huh-7, 72 h, read-out: HUH7 proliferation (nM) CTG
[5] = target: Tel-FGFR4 (Homo sapiens (Human), UniProt P22455); test: In vitro cellular kinase assay for FGFR4 (BaF3-Tel-FGFR4 cells, MSD capture ELISA of tyrosine phosphorylation); format: cell-based; conditions: BaF3-Tel-FGFR4 cells, 1 hour incubation; read-out: Cellular BaF3 FGFR4 IC50
[6] = target: FGFR4 (GST-FGFR4(388-802)) (Homo sapiens (Human), UniProt P22455); test: In-vitro biochemical kinase assay for FGFR4 (Caliper microfluidic mobility shift); conditions: read-out: Biochemical FGFR4 IC50
Sequence of FGFR4 (GST-FGFR4(388-802)) (P22455 388-802): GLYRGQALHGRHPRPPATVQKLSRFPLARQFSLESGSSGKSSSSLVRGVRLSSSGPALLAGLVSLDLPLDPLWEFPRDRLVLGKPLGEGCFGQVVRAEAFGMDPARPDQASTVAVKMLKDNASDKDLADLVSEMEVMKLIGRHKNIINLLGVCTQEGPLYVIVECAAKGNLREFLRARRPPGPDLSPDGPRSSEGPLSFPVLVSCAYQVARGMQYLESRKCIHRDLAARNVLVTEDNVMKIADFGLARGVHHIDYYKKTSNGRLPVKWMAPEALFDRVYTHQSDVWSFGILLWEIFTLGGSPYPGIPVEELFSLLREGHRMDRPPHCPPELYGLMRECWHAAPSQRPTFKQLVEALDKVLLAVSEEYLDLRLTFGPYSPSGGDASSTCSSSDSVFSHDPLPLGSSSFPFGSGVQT

Sequence of FGFR2 (406-821) (P21802 406-821): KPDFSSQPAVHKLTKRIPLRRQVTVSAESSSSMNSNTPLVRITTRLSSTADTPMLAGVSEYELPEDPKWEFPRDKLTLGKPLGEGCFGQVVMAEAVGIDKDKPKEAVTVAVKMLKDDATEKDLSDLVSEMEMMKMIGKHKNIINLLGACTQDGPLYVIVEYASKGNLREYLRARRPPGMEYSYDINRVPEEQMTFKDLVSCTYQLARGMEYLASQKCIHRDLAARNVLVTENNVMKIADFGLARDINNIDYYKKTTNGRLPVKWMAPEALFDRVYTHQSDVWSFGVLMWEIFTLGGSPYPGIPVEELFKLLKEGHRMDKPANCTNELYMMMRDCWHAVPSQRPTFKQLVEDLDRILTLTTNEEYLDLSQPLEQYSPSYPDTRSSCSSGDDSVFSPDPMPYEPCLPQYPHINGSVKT
Sequence of FGFR1 (407-822) (P11362 407-822): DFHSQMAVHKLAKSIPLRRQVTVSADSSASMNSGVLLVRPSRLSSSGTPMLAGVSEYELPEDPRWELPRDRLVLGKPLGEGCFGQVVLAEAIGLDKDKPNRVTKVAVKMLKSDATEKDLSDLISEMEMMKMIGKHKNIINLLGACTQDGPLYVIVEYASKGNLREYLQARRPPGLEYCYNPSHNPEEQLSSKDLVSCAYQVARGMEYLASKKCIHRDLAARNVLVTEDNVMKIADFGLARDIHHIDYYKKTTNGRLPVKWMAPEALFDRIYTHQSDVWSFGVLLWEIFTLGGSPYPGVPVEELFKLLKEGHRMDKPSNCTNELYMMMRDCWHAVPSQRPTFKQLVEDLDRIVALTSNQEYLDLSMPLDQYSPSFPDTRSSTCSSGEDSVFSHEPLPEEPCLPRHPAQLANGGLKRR
Sequence of FGFR3 (411-806) (P22607 411-806): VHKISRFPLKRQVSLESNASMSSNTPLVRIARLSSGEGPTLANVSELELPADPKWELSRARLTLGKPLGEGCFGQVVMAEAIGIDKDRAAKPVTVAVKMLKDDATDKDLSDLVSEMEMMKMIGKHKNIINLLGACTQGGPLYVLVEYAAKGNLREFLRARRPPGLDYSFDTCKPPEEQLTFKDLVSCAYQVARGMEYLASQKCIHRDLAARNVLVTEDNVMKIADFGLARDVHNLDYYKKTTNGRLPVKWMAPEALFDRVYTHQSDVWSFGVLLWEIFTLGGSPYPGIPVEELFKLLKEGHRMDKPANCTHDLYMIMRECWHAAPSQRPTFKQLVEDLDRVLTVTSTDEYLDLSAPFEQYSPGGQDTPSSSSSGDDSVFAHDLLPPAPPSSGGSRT
Sequence of Tel-FGFR4 (P22455 other isoform, or with tags, fused parts or gaps): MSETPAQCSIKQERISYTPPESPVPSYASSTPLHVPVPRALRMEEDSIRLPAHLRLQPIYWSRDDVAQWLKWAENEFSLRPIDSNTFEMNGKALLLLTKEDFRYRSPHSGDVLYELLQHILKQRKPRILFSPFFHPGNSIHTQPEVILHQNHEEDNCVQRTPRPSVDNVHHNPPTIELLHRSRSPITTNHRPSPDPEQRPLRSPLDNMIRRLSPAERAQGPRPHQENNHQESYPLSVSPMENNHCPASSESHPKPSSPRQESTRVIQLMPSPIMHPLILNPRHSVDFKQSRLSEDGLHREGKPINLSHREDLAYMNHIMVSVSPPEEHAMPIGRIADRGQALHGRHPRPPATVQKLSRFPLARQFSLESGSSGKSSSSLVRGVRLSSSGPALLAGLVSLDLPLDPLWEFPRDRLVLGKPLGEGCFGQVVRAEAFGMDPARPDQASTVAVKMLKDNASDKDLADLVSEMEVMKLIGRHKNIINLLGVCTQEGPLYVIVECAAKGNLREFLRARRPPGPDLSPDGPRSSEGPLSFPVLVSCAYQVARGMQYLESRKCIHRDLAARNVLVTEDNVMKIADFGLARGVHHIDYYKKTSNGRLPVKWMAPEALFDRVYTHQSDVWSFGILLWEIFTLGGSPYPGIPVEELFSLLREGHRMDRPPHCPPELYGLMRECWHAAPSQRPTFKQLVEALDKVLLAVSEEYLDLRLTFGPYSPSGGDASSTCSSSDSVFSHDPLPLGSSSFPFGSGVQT

Row | Compound | IC50 [1] [µM] | IC50 [2] [µM] | IC50 [3] [µM] | IC50 [4] [nM] | IC50 [5] [µM] | IC50 [6] [µM]
1 | COC(C)CNc1cc(NC(=O)N2CCCc3cc(CO)c(C=O)nc32)ncc1C#N (racemic) [Example 57, N-(5-cyano-4-((2-methoxypropyl)amino)pyridin-2-yl)-7-formyl-6-(hydroxymethyl)-3,4-dihydro-1,8-naphthyridine-1(2H)-carboxamide] | – | – | – | 436 | 0.0113 | 0.0039
2 | COCCNc1cc(NC(=O)N2CCCc3cc(N4CCOC4=O)c(C=O)nc32)ncc1C#N [Example 263, N-(5-cyano-4-((2-methoxyethyl)amino)pyridin-2-yl)-7-formyl-6-(2-oxooxazolidin-3-yl)-3,4-dihydro-1,8-naphthyridine-1(2H)-carboxamide] | – | – | – | 894 | 0.011 | 0.0002
3 | N#Cc1cnc(NC(=O)N2CCCc3cc(CO)c(C=O)nc32)cc1N[C@@H]1[C@H]2CC[C@H](C2)[C@@H]1CO (racemic) [Example 65, N-(5-cyano-4-(((1S*,2R*,3S*,4R*)-3-(hydroxymethyl)bicyclo[2.2.1]heptan-2-yl)amino)pyridin-2-yl)-7-formyl-6-(hydroxymethyl)-3,4-dihydro-1,8-naphthyridine-1(2H)-carboxamide] | – | – | – | 65 | 0.0146 | 0.0008
4 | CC(C)n1cnc2cnc(NC(=O)N3CCCc4cc(CN5CCCC5=O)c(C=O)nc43)cc21 [Example 220, 7-formyl-N-(1-isopropyl-1H-imidazo[4,5-c]pyridin-6-yl)-6-((2-oxopyrrolidin-1-yl)methyl)-3,4-dihydro-1,8-naphthyridine-1(2H)-carboxamide] | – | – | – | > 3000 | 0.094 | 0.096
5 | CC(C)Oc1cc(NC(=O)N2CCCc3cc(CN(C)C(=O)CN(C)C)c(C=O)nc32)ncc1C#N [Example 145, N-(5-cyano-4-isopropoxypyridin-2-yl)-6-((2-(dimethylamino)-N-methylacetamido)methyl)-7-formyl-3,4-dihydro-1,8-naphthyridine-1(2H)-carboxamide] | – | – | – | 154 | 0.015 | 0.0004
6 | O=Cc1ccc2c(n1)N(C(=O)Nc1ccc(C(F)(F)F)cn1)CCO2 [Example 14, 6-formyl-N-(5-(trifluoromethyl)pyridin-2-yl)-2H-pyrido[3,2-b][1,4]oxazine-4(3H)-carboxamide] | > 10 | > 10 | > 10 | – | – | –
7 | N#Cc1cnc(NC(=O)N2CCCc3cc(CN4CCCC4=O)c(C=O)nc32)cc1OCC1CCNC(=O)C1 (racemic) [Example 225, N-(5-cyano-4-((2-oxopiperidin-4-yl)methoxy)pyridin-2-yl)-7-formyl-6-((2-oxopyrrolidin-1-yl)methyl)-3,4-dihydro-1,8-naphthyridine-1(2H)-carboxamide] | – | – | – | 1000 | 0.0765 | 0.0057
8 | COCCNc1cc(NC(=O)N2CCCc3cc(CN4CC[C@H](O)C4=O)c(C=O)nc32)ncc1C#N [Example 100, (S)-N-(5-cyano-4-((2-methoxyethyl)amino)pyridin-2-yl)-7-formyl-6-((3-hydroxy-2-oxopyrrolidin-1-yl)methyl)-3,4-dihydro-1,8-naphthyridine-1(2H)-carboxamide] | – | – | – | 23.5 | 0.0053 | 0.0009
9 | N#Cc1cnc(NC(=O)N2CCCc3cc(CO)c(C=O)nc32)cc1OCC1CCCCO1 (racemic) [Example 44, N-(5-cyano-4-((tetrahydro-2H-pyran-2-yl)methoxy)pyridin-2-yl)-7-formyl-6-(hydroxymethyl)-3,4-dihydro-1,8-naphthyridine-1(2H)-carboxamide] | – | – | – | 1230 | 0.0313 | 0.0081
10 | CC(=O)N(C)Cc1cc2c(nc1C=O)N(C(=O)Nc1cc(NCCOC(F)(F)F)c(C#N)cn1)CCC2 [Example 188, N-(5-cyano-4-((2-(trifluoromethoxy)ethyl)amino)pyridin-2-yl)-7-formyl-6-((N-methylacetamido)methyl)-3,4-dihydro-1,8-naphthyridine-1(2H)-carboxamide] | – | – | – | 59 | 0.0052 | 0.0004
11 | COC[C@@H](Oc1cc(NC(=O)N2CCCc3cc(C(F)F)c(C=O)nc32)ncc1C#N)C(F)(F)F [Example 173, (R)-N-(5-cyano-4-((1,1,1-trifluoro-3-methoxypropan-2-yl)oxy)pyridin-2-yl)-6-(difluoromethyl)-7-formyl-3,4-dihydro-1,8-naphthyridine-1(2H)-carboxamide] | – | – | – | 1360 | 0.142 | 0.033
12 | COCCNc1cc(NC(=O)N2CCCc3cc(-n4ccnc4)c(C=O)nc32)ncc1C#N [Example 254, N-(5-cyano-4-((2-methoxyethyl)amino)pyridin-2-yl)-7-formyl-6-(1H-imidazol-1-yl)-3,4-dihydro-1,8-naphthyridine-1(2H)-carboxamide] | – | – | – | 1160 | 0.0445 | 0.0011
13 | COCCNc1cc(NC(=O)N2CCCc3cc(CN(CCN(C)C)S(C)(=O)=O)c(C=O)nc32)ncc1C#N [Example 144, N-(5-cyano-4-((2-methoxyethyl)amino)pyridin-2-yl)-6-((N-(2-(dimethylamino)ethyl)methylsulfonamido)methyl)-7-formyl-3,4-dihydro-1,8-naphthyridine-1(2H)-carboxamide] | – | – | – | 504 | 0.0185 | 0.0023
14 | CCc1cc(NC(=O)N2CCCc3cc(C=O)c(C=O)nc32)ncc1C#N [Example 106, N-(5-cyano-4-ethylpyridin-2-yl)-6,7-diformyl-3,4-dihydro-1,8-naphthyridine-1(2H)-carboxamide] | – | – | – | > 3000 | 2.53 | 0.095
15 | COCCNc1cc(NC(=O)N2CCCc3cc(CN4C[C@@H](C)N[C@@H](C)C4)c(C=O)nc32)ncc1C#N [Example 242, N-(5-cyano-4-((2-methoxyethyl)amino)pyridin-2-yl)-6-(((3R,5S)-3,5-dimethylpiperazin-1-yl)methyl)-7-formyl-3,4-dihydro-1,8-naphthyridine-1(2H)-carboxamide] | – | – | – | 1780 | 0.027 | 0.0026

Continued, in another order:

Row | IC50 [1] [µM] | IC50 [2] [µM] | IC50 [3] [µM] | Compound | IC50 [4] [nM] | IC50 [5] [µM] | IC50 [6] [µM]
16 | > 10 | > 10 | > 10 | CN(C)CC(C)(O)CNc1cc(NC(=O)N2CCCc3cc(CO)c(C=O)nc32)ncc1C#N (racemic) [Example 87, N-(5-cyano-4-((3-(dimethylamino)-2-hydroxy-2-methylpropyl)amino)pyridin-2-yl)-7-formyl-6-(hydroxymethyl)-3,4-dihydro-1,8-naphthyridine-1(2H)-carboxamide] | – | – | –
17 | > 10 | > 10 | > 10 | CN(C)CCOc1cc(NC(=O)N2CCCc3ccc(C=O)nc32)ncc1C#N [Example 38, N-(5-cyano-4-(2-(dimethylamino)ethoxy)pyridin-2-yl)-7-formyl-3,4-dihydro-1,8-naphthyridine-1(2H)-carboxamide] | – | – | –
18 | > 10 | > 10 | > 10 | COCCNc1cc(NC(=O)N2CCCc3cc(CO)c(C=O)nc32)ncc1C#N [Example 80, N-(5-cyano-4-((2-methoxyethyl)amino)pyridin-2-yl)-7-formyl-6-(hydroxymethyl)-3,4-dihydro-1,8-naphthyridine-1(2H)-carboxamide] | – | – | –
19 | > 10 | > 10 | > 10 | CCOc1cc(NC(=O)N2CCCc3ccc(C=O)nc32)ncc1C#N [Example 19, N-(5-cyano-4-ethoxypyridin-2-yl)-7-formyl-3,4-dihydro-1,8-naphthyridine-1(2H)-carboxamide] | – | – | –
20 | > 10 | > 10 | > 10 | COCCNc1cc(NC(=O)N2CCCc3cc(CN4CCOCC4=O)c(C=O)nc32)ncc1C#N [Example 98, N-(5-cyano-4-((2-methoxyethyl)amino)pyridin-2-yl)-7-formyl-6-((3-oxomorpholino)methyl)-3,4-dihydro-1,8-naphthyridine-1(2H)-carboxamide] | – | – | –
21 | > 10 | > 10 | > 10 | CN1CC[C@@H](Oc2cc(NC(=O)N3CCCc4cc(CO)c(C=O)nc43)ncc2C#N)C1 [Example 54, (R)-N-(5-cyano-4-((1-methylpyrrolidin-3-yl)oxy)pyridin-2-yl)-7-formyl-6-(hydroxymethyl)-3,4-dihydro-1,8-naphthyridine-1(2H)-carboxamide] | – | – | –
22 | > 10 | > 10 | > 10 | N#Cc1cnc(NC(=O)N2CCCc3ccc(C=O)nc32)nc1 [Example 8, N-(5-cyanopyrimidin-2-yl)-7-formyl-3,4-dihydro-1,8-naphthyridine-1(2H)-carboxamide] | – | – | –
23 | – | > 10 | > 10 | COCCNc1cc(NC(=O)N2CCCc3cc(C4CCOCC4)c(C=O)nc32)ncc1C#N [Example 249, N-(5-cyano-4-((2-methoxyethyl)amino)pyridin-2-yl)-7-formyl-6-(tetrahydro-2H-pyran-4-yl)-3,4-dihydro-1,8-naphthyridine-1(2H)-carboxamide] | 222 | – | –
24 | > 10 | > 10 | > 10 | N#Cc1ccc(NC(=O)N2CCCCc3ccc(C=O)nc32)nc1 [Example 201, N-(5-cyanopyridin-2-yl)-2-formyl-7,8-dihydro-5H-pyrido[2,3-b]azepine-9(6H)-carboxamide] | – | – | –
25 | > 10 | > 10 | > 10 | CC(C)Oc1cc(NC(=O)N2CCc3ccc(C=O)nc32)ncc1C#N [Example 234, N-(5-cyano-4-isopropoxypyridin-2-yl)-6-formyl-2,3-dihydro-1H-pyrrolo[2,3-b]pyridine-1-carboxamide] | – | – | –
